Patent US9708314B2, “Heterocyclic amide compound” (NISSAN CHEMICAL INDUSTRIES, LTD., priority 2013, dated 2017)

Assays:
Type in all cases: in vivo
Triticum aestivum = assay: Test Example 4: effect on crop by application to foliage (diluvial soil, plastic box); details: for e: effect on crop, Triticum aestivum: application to foliage, application herbicide amount 320 g/ha; for e (Triticum aestivum) effect on crop grade: foliage application
In short: (§1)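 Read-out is a 0–5 visual grade of herbicidal ratio (5: ≥90%, almost withered; 0: ≤5%) taken three weeks after treatment. Compound was applied as a diluted emulsion to stem and leaf parts of 14-day greenhouse-grown plants (25° C. to 30° C.) at rates expressed as g/ha.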

Zea mays = assay: as above; details: for c: effect on crop, Zea mays: application to foliage, application herbicide amount 320 g/ha; for c (Zea mays) effect on crop grade: Application herbicide amount 320 g/ha; for c (Zea mays) effect on crop grade / b (Zea mays) effect on crop grade: foliage application; for b (Zea mays) effect on crop grade: 320 g/ha
In short: as §1

Brassica campestris L. = assay: as above; details: for g: effect on crop, Brassica campestris L.: application to foliage, application herbicide amount 320 g/ha; for g (Brassica campestris L.) effect on crop grade: foliage application
In short: as §1

Glycine max = assay: as above; details: for d: effect on crop, Glycine max: application to foliage, application herbicide amount 320 g/ha; for d (Glycine max) effect on crop grade: Application herbicide amount 320 g/ha; for d (Glycine max) effect on crop grade / c (Glycine max) effect on crop grade: foliage application; for c (Glycine max) effect on crop grade: 320 g/ha
In short: as §1

[1] = test system: Beta vulgaris ssp. vulgaris; assay: as above; details: for f: effect on crop, Beta vulgaris ssp. vulgaris: application to foliage, application herbicide amount 320 g/ha; for f (Beta vulgaris ssp. vulgaris) effect on crop grade: foliage application
In short: as §1

[2] = test system: directly sowed Oryza sativa; assay: as above; details: for b: effect on crop, directly sowed Oryza sativa: application to foliage, application herbicide amount 320 g/ha; for b (directly sowed Oryza sativa) effect on crop grade: Application herbicide amount 320 g/ha; for b (directly sowed Oryza sativa) effect on crop grade / d (directly sowed Oryza sativa) effect on crop grade: foliage application; for d (directly sowed Oryza sativa) effect on crop grade: 320 g/ha
In short: as §1

Scirpus juncoides = assay: Test Example 2: herbicidal activity, application during weed generation in submerged conditions; details: Eighteenth Table; application herbicide amount 320 g/ha
In short: (§2)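 Paddy-type pot test: flooded soil, 4 cm depth, greenhouse 25–30 °C. Emulsion formulation diluted in water, applied to water surface at 1–2 leaf stage; rate expressed as g/ha. Read-out at 3 wk, 0–5 score.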

Monochoria vaginalis = assay: as above; details: Eighteenth Table; application herbicide amount 320 g/ha
In short: as §2

[3] = test system: directly sowed Oryza sativa; assay: Test Example 3: effect on crop by application to foliage (Wagner pot, water depth 0.1-0.5 cm); details: Nineteenth Table; application to foliage; application herbicide amount 320 g/ha
In short: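 Alluvial soil in 1/10000 are Wagner pots, sown and grown 14 days in a 25–30 °C greenhouse. An emulsifiable concentrate diluted in water to the set dose (g/ha) was sprayed on stems and leaves. Effect scored three weeks later on a 0–5 scale: 5 = ≥90% herbicidal ratio, 0 = ≤5%.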

[4] = Application herbicide amount 320 g/ha

| Structure (SMILES) | B (Scirpus juncoides) herbicidal ratio grade (Scirpus juncoides) | C (Monochoria vaginalis) herbicidal ratio grade (Monochoria vaginalis) | b (effect on crop grade) [3] | e (Triticum aestivum) effect on crop grade (Triticum aestivum; [4]) | c (Zea mays) effect on crop grade (Zea mays) | g (Brassica campestris L.) effect on crop grade (Brassica campestris L.; [4]) | d (Glycine max) effect on crop grade (Glycine max) | f (Beta vulgaris ssp. vulgaris) effect on crop grade [1, 4] | b (directly sowed Oryza sativa) effect on crop grade [2] | other results |
| --- | --- | --- | --- | --- | --- | --- | --- | --- | --- | --- |
| CCOCc1nnc2c(C(=O)Nc3nnnn3C)ccc(C(F)(F)F)n12 [2-026] | 5 (Herbicidal ratio of 90% or more (almost completely withered)) | 4 (Herbicidal ratio of 70% or more and less than 90%) | 5 (Herbicidal ratio of 90% or more (almost completely withered)) | – | – | – | – | – | – | e: effect on crop, Triticum aestivum (Triticum aestivum): 3 (Herbicidal ratio of 40% or more and less than 70%); c: effect on crop, Zea mays (Zea mays): 2 (Herbicidal ratio of 20% or more and less than 40%); g: effect on crop, Brassica campestris L. (Brassica campestris L.): 5 (Herbicidal ratio of 90% or more (almost completely withered)); d: effect on crop, Glycine max (Glycine max): 5 (Herbicidal ratio of 90% or more (almost completely withered)); f: effect on crop, Beta vulgaris ssp. vulgaris [1]: 5 (Herbicidal ratio of 90% or more (almost completely withered)); b: effect on crop, directly sowed Oryza sativa [2]: 5 (Herbicidal ratio of 90% or more (almost completely withered)) |
| COc1ccc(CSc2nnc3c(C(=O)Nc4nnc(C)o4)ccc(C(F)(F)F)n23)cc1 [1-114] | 1 (Herbicidal ratio of 5% or more and less than 20%) | 0 (Herbicidal ratio of 5% or less (almost no effect)) | 0 (Herbicidal ratio of 5% or less (almost no effect)) | 0 (Herbicidal ratio of 5% or less (almost no effect)) | 0 (Herbicidal ratio of 5% or less (almost no effect)) | 0 (Herbicidal ratio of 5% or less (almost no effect)) | 0 (Herbicidal ratio of 5% or less (almost no effect)) | 4 (Herbicidal ratio of 70% or more and less than 90%) | 0 (Herbicidal ratio of 5% or less (almost no effect)) | – |
| COCCNc1nnc2c(C(=O)Nc3nnc(C)o3)ccc(C(F)(F)F)n12 [1-109] | 1 (Herbicidal ratio of 5% or more and less than 20%) | 0 (Herbicidal ratio of 5% or less (almost no effect)) | 2 (Herbicidal ratio of 20% or more and less than 40%) | 0 (Herbicidal ratio of 5% or less (almost no effect)) | 1 (Herbicidal ratio of 5% or more and less than 20%) | 4 (Herbicidal ratio of 70% or more and less than 90%) | 3 (Herbicidal ratio of 40% or more and less than 70%) | 4 (Herbicidal ratio of 70% or more and less than 90%) | 0 (Herbicidal ratio of 5% or less (almost no effect)) | – |
| CC(C)[S+]([O-])c1nnc2c(C(=O)Nc3nnnn3C)ccc(C(F)(F)F)n12 (stereo not drawn) [2-032] | 5 (Herbicidal ratio of 90% or more (almost completely withered)) | 5 (Herbicidal ratio of 90% or more (almost completely withered)) | 5 (Herbicidal ratio of 90% or more (almost completely withered)) | – | – | – | – | – | – | e (Triticum aestivum) effect on crop grade (Triticum aestivum; 320 g/ha): 5 (Herbicidal ratio of 90% or more (almost completely withered)); b (Zea mays) effect on crop grade (Zea mays): 5 (Herbicidal ratio of 90% or more (almost completely withered)); g (Brassica campestris L.) effect on crop grade (Brassica campestris L.; 320 g/ha): 5 (Herbicidal ratio of 90% or more (almost completely withered)); c (Glycine max) effect on crop grade (Glycine max): 5 (Herbicidal ratio of 90% or more (almost completely withered)); f (Beta vulgaris ssp. vulgaris) effect on crop grade ([1]; 320 g/ha): 5 (Herbicidal ratio of 90% or more (almost completely withered)); d (directly sowed Oryza sativa) effect on crop grade [2]: 5 (Herbicidal ratio of 90% or more (almost completely withered)) |
| Cn1nnnc1NC(=O)c1ccc(C(F)(F)F)n2c(C[S+](C)[O-])nnc12 (stereo not drawn) [2-033] | 3 (Herbicidal ratio of 40% or more and less than 70%) | 4 (Herbicidal ratio of 70% or more and less than 90%) | 5 (Herbicidal ratio of 90% or more (almost completely withered)) | – | – | – | – | – | – | e (Triticum aestivum) effect on crop grade (Triticum aestivum; 320 g/ha): 4 (Herbicidal ratio of 70% or more and less than 90%); b (Zea mays) effect on crop grade (Zea mays): 5 (Herbicidal ratio of 90% or more (almost completely withered)); g (Brassica campestris L.) effect on crop grade (Brassica campestris L.; 320 g/ha): 5 (Herbicidal ratio of 90% or more (almost completely withered)); c (Glycine max) effect on crop grade (Glycine max): 4 (Herbicidal ratio of 70% or more and less than 90%); f (Beta vulgaris ssp. vulgaris) effect on crop grade ([1]; 320 g/ha): 5 (Herbicidal ratio of 90% or more (almost completely withered)); d (directly sowed Oryza sativa) effect on crop grade [2]: 5 (Herbicidal ratio of 90% or more (almost completely withered)) |
| O=C(Nc1nnco1)c1ccc(C(F)(F)F)n2c(N3CCOCC3)nnc12 [1-110] | 3 (Herbicidal ratio of 40% or more and less than 70%) | 4 (Herbicidal ratio of 70% or more and less than 90%) | 5 (Herbicidal ratio of 90% or more (almost completely withered)) | 3 (Herbicidal ratio of 40% or more and less than 70%) | 4 (Herbicidal ratio of 70% or more and less than 90%) | 5 (Herbicidal ratio of 90% or more (almost completely withered)) | 4 (Herbicidal ratio of 70% or more and less than 90%) | 5 (Herbicidal ratio of 90% or more (almost completely withered)) | 4 (Herbicidal ratio of 70% or more and less than 90%) | – |
| Cc1nnc(NC(=O)c2ccc(C(F)(F)F)n3c(N4CCS(=O)(=O)CC4)nnc23)o1 [1-120] | 3 (Herbicidal ratio of 40% or more and less than 70%) | 2 (Herbicidal ratio of 20% or more and less than 40%) | 3 (Herbicidal ratio of 40% or more and less than 70%) | 3 (Herbicidal ratio of 40% or more and less than 70%) | 0 (Herbicidal ratio of 5% or less (almost no effect)) | 5 (Herbicidal ratio of 90% or more (almost completely withered)) | 4 (Herbicidal ratio of 70% or more and less than 90%) | 5 (Herbicidal ratio of 90% or more (almost completely withered)) | 2 (Herbicidal ratio of 20% or more and less than 40%) | – |
| Cc1nnc(NC(=O)c2ccc(C(F)(F)F)n3c(SCC4CCCO4)nnc23)o1 (stereo not drawn) [1-116] | 4 (Herbicidal ratio of 70% or more and less than 90%) | 0 (Herbicidal ratio of 5% or less (almost no effect)) | 0 (Herbicidal ratio of 5% or less (almost no effect)) | 2 (Herbicidal ratio of 20% or more and less than 40%) | 0 (Herbicidal ratio of 5% or less (almost no effect)) | 4 (Herbicidal ratio of 70% or more and less than 90%) | 3 (Herbicidal ratio of 40% or more and less than 70%) | 5 (Herbicidal ratio of 90% or more (almost completely withered)) | 0 (Herbicidal ratio of 5% or less (almost no effect)) | – |
| Cn1nnnc1NC(=O)c1ccc(C(F)(F)F)n2c(-c3ccccc3)nnc12 [2-007] | 4 (Herbicidal ratio of 70% or more and less than 90%) | 4 (Herbicidal ratio of 70% or more and less than 90%) | 4 (Herbicidal ratio of 70% or more and less than 90%) | – | – | – | – | – | – | e: effect on crop, Triticum aestivum (Triticum aestivum): 2 (Herbicidal ratio of 20% or more and less than 40%); c: effect on crop, Zea mays (Zea mays): 0 (Herbicidal ratio of 5% or less (almost no effect)); g: effect on crop, Brassica campestris L. (Brassica campestris L.): 4 (Herbicidal ratio of 70% or more and less than 90%); d: effect on crop, Glycine max (Glycine max): 3 (Herbicidal ratio of 40% or more and less than 70%); f: effect on crop, Beta vulgaris ssp. vulgaris [1]: 5 (Herbicidal ratio of 90% or more (almost completely withered)); b: effect on crop, directly sowed Oryza sativa [2]: 2 (Herbicidal ratio of 20% or more and less than 40%) |
